Format in all cases: in vivo
Assay [1] relates to spring barley, HORVS Montoya. Put plainly: Tank-mix; post-emergence: crop damage by herbicide with/without safener mefenpyr-diethyl. The protocol:
(§1) Seeds of crops (spring wheat, TRZAS; spring barley, HORVS; maize, ZEAMA) were placed in sandy loam soil in peat pots, covered with soil and cultivated in a greenhouse under good growth conditions. Two to three weeks after sowing, the test plants were treated at the 1 to 3-leaf stage. The herbicide/safener active compound combinations according to the invention, formulated as wettable powders or emulsion concentrates, and, in parallel tests, the correspondingly formulated individual active compounds were sprayed onto the green parts of the plants in various dosages using an amount of water of 300 l/ha (converted).
(§2) The pots were returned under good growing conditions in a glasshouse and a visual assessment of herbicidal effects was made at intervals from 1 to 3 weeks after herbicide application (DAT=days after treatment). Assessment was on a percentage basis in comparison with untreated control plants (0%=no injury, 100%=complete kill).

For assay [2], the system named is spring wheat, TRZAS Triso. Put plainly: Seed treatment with safener; post-emergence herbicide, crop damage. Particulars: for HER effect + SAF [%] (crop damage) / Reduction [%] / Reduction [Difference]: mefenpyr-diethyl 0.5 g a.i./kg seed; for HER effect [%] (crop damage, herbicide without safener): no safener. From the text:
(§3) For safener seed treatment trials, sufficient seed amounts of the respective crops (spring wheat (TRZAS); spring barley (HORVS)) were weighed into screw cap glass bottles with a minimum volume trice of the seeds.
(§4) As a first step, specified safeners formulated as wettable powder (WP) or wettable granules (WG) were weighed out for the required dosages (g a.i./kg seed), corresponding to the seed amounts. The safener amounts were mixed with a coloured slurry blind formulation type, prediluted with milk at 3.5% fat rate (25 mgs slurry formulation plus 2 ml milk per 10 grams of seed). A tube roller was used for coating. The solutions were gradually pipetted each on the rotating seeds followed by coating for min. 3 hours until all liquid had been soaked up by the seeds. Thereafter, the coated seeds were put flat on open trays for drying over night at room temperature.
(§5) Treated seeds were then placed into pots (7 cm diameter) on the surface of sandy loam, pressed down, flat covered with additional soil and finally covered with sandy soil, also pressed down, watered, and kept under good growth conditions in a greenhouse, until the plants had reached 2-leaf-stage (BBCH 12).
(§6) At that stage, post-emergence application of the specified herbicides was done on:
(§7) a) pot sets containing plants with safener-coated seeds as described above,
(§8) b) as a reference, pot sets of plants without seed treatment.
(§9) The herbicides were formulated as wettable powder (WP). Equivalent to the spray area, compound amounts were weighed out and diluted related to the water application rate (300 l/ha) to an aqueous suspension plus additive (1 l/ha MERO). Dosage related equivalents were conventionally sprayed on trays with the potted plants.
(§10) After application, the test plants were kept under good growth conditions in a greenhouse.
(§11) Assessment timings were 10 and 21 days after treatment (DAT) with the herbicide, by visual scoring of the crop damage in % (comparison of untreated with treated plants, either sprayed only with herbicide or with herbicide on plants with treated seeds).

The subject of assay [3] is spring barley, HORVS Montoya. Described as above. Particulars: for HER effect + SAF / Reduction [%] / Reduction [Difference]: mefenpyr-diethyl 0.5 g a.i./kg seed.
From the text: as §3, §4, §5, §6, §7, §8, §9, §10, §11

Assay [4] deals with spring wheat, TRZAS Triso. Put plainly: Tank-mix; post-emergence: crop damage by herbicide with/without safener mefenpyr-diethyl. As for the experimental part: as §1, §2
[5] abbreviates: HER 8 g a.i./ha + mefenpyr-diethyl 100 g a.i./ha, 21 DAT.
[6] abbreviates: herbicide alone 8 g a.i./ha, 21 DAT.
Where [7] appears, read: HER 8 g a.i./ha post-emergence, 21 DAT.
The mark [8] stands for this setting: herbicide alone 8 g a.i./ha post-emergence, 21 DAT.
[9] abbreviates: HER 2 g a.i./ha + mefenpyr-diethyl 50 g a.i./ha, 10 DAT.
Where [10] appears, read: HER 8 g a.i./ha + mefenpyr-diethyl 50 g a.i./ha, 10 DAT.
The mark [11] stands for this setting: herbicide alone 8 g a.i./ha, 10 DAT.
The mark [12] stands for this setting: HER 2 g a.i./ha post-emergence, 21 DAT.
Setting [13] is: HER 32 g a.i./ha post-emergence, 21 DAT.
The mark [14] stands for this setting: herbicide alone 32 g a.i./ha post-emergence, 21 DAT.
[15] abbreviates: HER 32 g a.i./ha + mefenpyr-diethyl 100 g a.i./ha, 10 DAT.
The mark [16] stands for this setting: herbicide alone 32 g a.i./ha, 10 DAT.
Setting [17] is: HER 32 g a.i./ha post-emergence, 10 DAT.
Where [18] appears, read: herbicide alone 32 g a.i./ha post-emergence, 10 DAT.
The mark [19] stands for this setting: HER 2 g a.i./ha + mefenpyr-diethyl 50 g a.i./ha, 21 DAT.
[20] abbreviates: HER 8 g a.i./ha + mefenpyr-diethyl 50 g a.i./ha, 21 DAT.

Consider six compounds from patent US20230200390A1, “SELECTIVE HERBICIDES BASED ON SUBSTITUTED ISOXAZOLIN CARBOXAMIDES AND MEFENPYR-DIETHYL” (BAYER AKTIENGESELLSCHAFT, priority 2020, published 2023).

The structures appear in SMILES notation.

`C=CC1(C(=O)NC2CC=C(C(=O)OC)C2)CC(c2cc(F)cc(F)c2)=NO1` (mixture of isomers) [Example 1.60]: in assay [1] (setting [5]), the “HER effect + SAF” value amounted to 20%, the “Reduction [%]” value is given as 75% and the “Reduction [Difference]” value amounted to 60. For the same compound, the HER effect in assay [1] (setting [6]) was found to be 80%. In addition, in assay [2] (21 DAT, HER dose 8 g a.i./ha), the “HER effect + SAF [%] (crop damage)” value amounted to 0%; the “Reduction [%]” value was 100%; the “Reduction [Difference]” value was 93; the “HER effect [%] (crop damage, herbicide without safener)” value turned out to be 93%. In addition, in assay [2] (21 DAT, HER dose 32 g a.i./ha), the “HER effect + SAF [%] (crop damage)” value came to 10%; the “Reduction [%]” value is 89%; the “Reduction [Difference]” value came to 85; the “HER effect [%] (crop damage, herbicide without safener)” value was 95%. In addition, in assay [3] (setting [7]), the “HER effect + SAF” value was 10%, the “Reduction [%]” value stood at 88% and the “Reduction [Difference]” value was found to be 70. This compound also gave an HER effect in assay [3] (setting [8]) of 80%.

`CSCCOC(=O)C1C=CC(NC(=O)C2(C(F)(F)F)CC(c3cc(F)cc(F)c3)=NO2)C1` (centres unmarked) [Example 1.7]: the “HER effect + SAF” value in assay [4] (setting [9]) is listed as 0%; in assay [4] (setting [10]), 70%; in assay [3] (setting [12]) it was 40%; in assay [3] (setting [13]), 50%. Also, the “Reduction [%]” value in assay [4] (setting [9]) was determined as 100%; in assay [4] (setting [10]), 25%; in assay [2] (10 DAT, HER dose 2 g a.i./ha), 100%; in assay [2] (10 DAT, HER dose 8 g a.i./ha), 57%; in assay [3] (setting [12]), 43%; in assay [3] (setting [13]) it was 47%. Further, the “Reduction [Difference]” value turned out to be 50 in assay [4] (setting [9]); 23 in assay [4] (setting [10]); 50 in assay [2] (10 DAT, HER dose 2 g a.i./ha); 53 in assay [2] (10 DAT, HER dose 8 g a.i./ha); 30 in assay [3] (setting [12]); 45 in assay [3] (setting [13]). Besides, the HER effect in assay [4] (herbicide alone 2 g a.i./ha, 10 DAT) is reported as 50%; in assay [4] (setting [11]) it was 93%; in assay [3] (herbicide alone 2 g a.i./ha post-emergence, 21 DAT) it was 70%; in assay [3] (setting [14]), 95%. In addition, the “HER effect + SAF [%] (crop damage)” value in assay [2] (10 DAT, HER dose 2 g a.i./ha) came to 0%; in assay [2] (10 DAT, HER dose 8 g a.i./ha), 40%. For the same compound, the “HER effect [%] (crop damage, herbicide without safener)” value was found to be 50% in assay [2] (10 DAT, HER dose 2 g a.i./ha) and 93% in assay [2] (10 DAT, HER dose 8 g a.i./ha).

Consider `COC(=O)C1C=CC(NC(=O)C2(C(F)(F)F)CC(c3cccc(F)c3)=NO2)C1` (centres unmarked) [Example 1.18], for which the “HER effect + SAF” value in assay [1] (setting [10]) is 0%; in assay [1] (setting [15]), 10%; in assay [3] (setting [17]), 20%. In addition, the “Reduction [%]” value in assay [1] (setting [10]) is recorded as 100%; in assay [1] (setting [15]) it was 88%; in assay [3] (setting [17]), 75%. In addition, the figures for the “Reduction [Difference]” value in assay [1] (setting [10]), in assay [1] (setting [15]) and in assay [3] (setting [17]) were 20, 70 and 60, respectively. Moreover, the HER effect is listed as 20% in assay [1] (setting [11]), 80% in assay [1] (setting [16]) and 80% in assay [3] (setting [18]).

For the compound `C=CCOC(=O)C1CC(NC(=O)C2(C=C)CC(c3cc(C)cc(F)c3)=NO2)CO1` (mixture of isomers) [Example 1.85], the “HER effect + SAF” value in assay [1] (setting [10]) is recorded as 0%; in assay [1] (setting [15]), 20%; in assay [3] (setting [17]), 30%. Further, the “Reduction [%]” value in assay [1] (setting [10]) was determined as 100%; in assay [1] (setting [15]), 75%; in assay [3] (setting [17]), 63%. In addition, the results for the “Reduction [Difference]” value in assay [1] (setting [10]), in assay [1] (setting [15]) and in assay [3] (setting [17]) were 20, 60 and 50, respectively. The results for the HER effect in assay [1] (setting [11]), in assay [1] (setting [16]) and in assay [3] (setting [18]) were 20%, 80% and 80%, respectively.

On to `COC(=O)C1C=CC(NC(=O)C2(C)CC(c3cc(Cl)cc(C#N)c3)=NO2)C1` (mixture of isomers) [Example 1.23], for which, in assay [2] (21 DAT, HER dose 8 g a.i./ha), the “HER effect + SAF [%] (crop damage)” value was found to be 0%; the “Reduction [%]” value amounted to 100%; the “Reduction [Difference]” value came out at 20; the “HER effect [%] (crop damage, herbicide without safener)” value was 20%. Moreover, in assay [3] (setting [7]), the “HER effect + SAF” value is given as 0%, the “Reduction [%]” value is given as 100% and the “Reduction [Difference]” value is listed as 20. Also, in assay [3] (setting [13]), the “HER effect + SAF” value was found to be 10%, the “Reduction [%]” value is recorded as 67% and the “Reduction [Difference]” value is recorded as 20. In assay [3] (setting [8]), this compound displayed an HER effect of 20%. This compound also showed an HER effect in assay [3] (setting [14]) of 30%.

With `C=CC1(C(=O)NC2C=CC(C(=O)O)C2)CC(c2cc(F)cc(F)c2)=NO1` (centres unmarked) [Example 1.58], the “HER effect + SAF” value in assay [4] (setting [19]) is listed as 10%; in assay [4] (setting [20]), 40%; in assay [3] (setting [7]) it was 0%; in assay [3] (setting [13]), 40%. Besides, the “Reduction [%]” value in assay [4] (setting [19]) was found to be 88%; in assay [4] (setting [20]) it was 57%; in assay [2] (21 DAT, HER dose 2 g a.i./ha), 100%; in assay [2] (21 DAT, HER dose 8 g a.i./ha), 100%; in assay [2] (21 DAT, HER dose 32 g a.i./ha) it was 89%; in assay [3] (setting [7]) it was 100%. In addition, in assay [3] (setting [13]), the “Reduction [%]” value worked out at 58%. Also, the “Reduction [Difference]” value in assay [4] (setting [19]) is 75; in assay [4] (setting [20]), 53; in assay [2] (21 DAT, HER dose 2 g a.i./ha), 85; in assay [2] (21 DAT, HER dose 8 g a.i./ha) it was 93; in assay [2] (21 DAT, HER dose 32 g a.i./ha), 83; in assay [3] (setting [7]) it was 95. In assay [3] (setting [13]), the “Reduction [Difference]” value is listed as 55. In addition, the HER effect in assay [4] (herbicide alone 2 g a.i./ha, 21 DAT) is 85%; in assay [4] (setting [6]), 93%; in assay [3] (setting [8]), 95%; in assay [3] (setting [14]), 95%. Further, the “HER effect + SAF [%] (crop damage)” value in assay [2] (21 DAT, HER dose 2 g a.i./ha) was 0%; in assay [2] (21 DAT, HER dose 8 g a.i./ha) it was 0%; in assay [2] (21 DAT, HER dose 32 g a.i./ha) it was 10%. In addition, the “HER effect [%] (crop damage, herbicide without safener)” value in assay [2] (21 DAT, HER dose 2 g a.i./ha) turned out to be 85%; in assay [2] (21 DAT, HER dose 8 g a.i./ha) it was 93%; in assay [2] (21 DAT, HER dose 32 g a.i./ha), 93%.
